The source of these data is ChEMBL document CHEMBL1146119, “Amino functionalized novel cholic acid derivatives induce HIV-1 replication and syncytia formation in T cells” (J Med Chem, 2006).

The source made the active and inactive calls. No cut-off for these calls is given here.

For this assay, the system named is Human immunodeficiency virus 1. Description: Induction of HIV1 NL4-3 virus replication in CEM-GFP cells. The format is functional, organism-based.
`COC(=O)CC[C@@H](C)[C@H]1CC[C@H]2[C@H]3[C@H]([C@@H](N=[N+]=[N-])C(=O)[C@]12C)[C@@]1(C)CC[C@@H](OC(C)=O)C[C@H]1C[C@H]3OC(C)=O`: the outcome was Active.

Consider `COC(=O)CC[C@@H](C)[C@H]1CC[C@H]2[C@@H]3[C@H](OC(C)=O)C[C@@H]4C[C@H](OC(C)=O)CC[C@]4(C)[C@H]3C[C@H](O)[C@]12C`, for which the result was inactive.

Consider `COC(=O)CC[C@@H](C)[C@H]1CC[C@H]2[C@H]3C(=C(N)C(=O)[C@]12C)[C@@]1(C)CC[C@@H](OC(C)=O)C[C@H]1C[C@H]3OC(C)=O`, for which the result was Active.

In the case of `COC(=O)CC[C@@H](C)[C@H]1CC[C@H]2[C@H]3[C@H]([C@@H](N)[C@@H](O)[C@]12C)[C@@]1(C)CC[C@@H](OC(C)=O)C[C@H]1C[C@H]3OC(C)=O`, the result was Active.

For the molecule `COC(=O)CC[C@@H](C)[C@H]1CC[C@H]2[C@H]3[C@H]([C@H](N)[C@H](O)[C@]12C)[C@@]1(C)CC[C@@H](OC(C)=O)C[C@H]1C[C@H]3OC(C)=O`, the outcome was Active.

As for `COC(=O)CC[C@@H](C)[C@H]1CC[C@H]2[C@H]3[C@H]([C@H](N=[N+]=[N-])C(=O)[C@]12C)[C@@]1(C)CC[C@@H](OC(C)=O)C[C@H]1C[C@H]3OC(C)=O`, the outcome was Active.

With `C[C@H](CCC(=O)O)[C@H]1CC[C@H]2[C@@H]3[C@H](O)C[C@@H]4C[C@H](O)CC[C@]4(C)[C@H]3C[C@H](O)[C@]12C`, the outcome was inactive.

`COC(=O)CC[C@@H](C)[C@H]1CC[C@H]2[C@H]3[C@H]([C@H](N)C(=O)[C@]12C)[C@@]1(C)CC[C@@H](OC(C)=O)C[C@H]1C[C@H]3OC(C)=O`: the result was Active.
